Assay [1] has as its system EL4. The assay can be described thus: Tested in vitro for its ability to inhibit cell proliferation of lymphoma EL-4 cells measured […] by MTT method. Format: functional, cell-based, Mus musculus. In general terms: Tetrazolium dyes change colour on reduction, which living cells bring about.
The test system of assay [2] is P388. Description: Tested in vitro for its ability to inhibit cell proliferation of murine leukemia P388D1 cells measured […] by MTT method. Type of assay: functional, cell-based. Particulars: Mus musculus.
Assay [3] concerns CPAE. The assay can be described thus: Tested in vitro for its ability to inhibit cell proliferation of calf pulmonary artery endothelial cells measured […] by SRB method. Format: functional, cell-based, Bos taurus. A general note: Sulforhodamine B stains cellular protein and so reports cell mass.
Setting [4] is: Mus musculus, EL4, read-out: IC50.
The mark [5] stands for this setting: Bos taurus, CPAE, Artery, read-out: IC50.

Values after ≈ are worked out from the molar mass of the structure shown. Where only a bound is given, the exact number is not on record here.

Broadly, the IC50 is the concentration at which inhibition is half-maximal.

Consider `COc1ccc(CCNC(=O)O[C@@H]2CC[C@]3(CO3)[C@@H]([C@@]3(C)O[C@@H]3CC=C(C)C)[C@@H]2OC)cc1OC`, for which the half-maximal inhibitory concentration (IC50) was 0.042 ng/mL (≈ 0.0858 nM) in assay [1] (setting [4]), greater than 1 ng/mL in assay [2] and 0.044 ng/mL (≈ 0.0899 nM) in assay [3] (setting [5]).
Turning to `CO[C@@H]1[C@H](OC(=O)/C=C/C=C/C=C/C=C/C(=O)O)CC[C@]2(CO2)[C@H]1[C@@]1(C)O[C@@H]1CC=C(C)C` [FUMAGILLIN], the IC50 is 0.42 ng/mL (≈ 0.916 nM) in assay [1] (setting [4]), greater than 1 ng/mL in assay [2] and 0.37 ng/mL (≈ 0.807 nM) in assay [3] (setting [5]).
Take `CO[C@@H]1[C@H](OC(=O)NCc2ccccc2)CC[C@]2(CO2)[C@H]1[C@@]1(C)O[C@@H]1CC=C(C)C`: the IC50 in assay [1] (setting [4]) is 0.01 ng/mL (≈ 0.0241 nM); in assay [2], greater than 1 ng/mL; in assay [3] (setting [5]) it was 0.07 ng/mL (≈ 0.168 nM).
On to `COc1cc(CCC(=O)O[C@@H]2CC[C@]3(CO3)[C@@H]([C@@]3(C)O[C@@H]3CC=C(C)C)[C@@H]2OC)cc(OC)c1OC`, for which the half-maximal inhibitory concentration (IC50) in assay [1] (setting [4]) came to 36 ng/mL (≈ 71.3 nM); in assay [3] (setting [5]), 44 ng/mL (≈ 87.2 nM).
`CO[C@@H]1[C@H](OC(=O)NC(=O)CCl)CC[C@]2(CO2)[C@H]1[C@@]1(C)O[C@@H]1CC=C(C)C` [O-CHLOROACETYLCARBAMOYLFUMAGILLOL]: the concentration for half-maximal inhibition (IC50) in assay [1] (setting [4]) was 0.03 ng/mL (≈ 0.0746 nM); in assay [2], greater than 10 ng/mL; in assay [3] (setting [5]), 0.04 ng/mL (≈ 0.0995 nM).
Regarding `COc1ccc(CNC(=O)O[C@@H]2CC[C@]3(CO3)[C@@H]([C@@]3(C)O[C@@H]3CC=C(C)C)[C@@H]2OC)cc1`, the IC50 in assay [1] (setting [4]) was 0.042 ng/mL (≈ 0.0943 nM); in assay [2], greater than 1 ng/mL; in assay [3] (setting [5]), 0.044 ng/mL (≈ 0.0988 nM).
As for `COc1ccc(CCOC(=O)O[C@@H]2CC[C@]3(CO3)[C@@H]([C@@]3(C)O[C@@H]3CC=C(C)C)[C@@H]2OC)cc1`, the half-maximal inhibitory concentration (IC50) is 153 ng/mL (≈ 332 nM) in assay [1] (setting [4]) and 2.3 ng/mL (≈ 4.99 nM) in assay [3] (setting [5]).
As for `CO[C@@H]1[C@H](OC(=O)/C=C/c2ccccc2)CC[C@]2(CO2)[C@H]1[C@@]1(C)O[C@@H]1CC=C(C)C`, the IC50 is 0.05 ng/mL (≈ 0.121 nM) in assay [1] (setting [4]), greater than 1 ng/mL in assay [2] and 0.046 ng/mL (≈ 0.112 nM) in assay [3] (setting [5]).
In the case of `CO[C@@H]1[C@H](O)CC[C@]2(CO2)[C@H]1[C@@]1(C)O[C@@H]1CC=C(C)C`, the concentration for half-maximal inhibition (IC50) was 5.16 ng/mL (≈ 18.3 nM) in assay [1] (setting [4]), greater than 10 ng/mL in assay [2] and 15 ng/mL (≈ 53.1 nM) in assay [3] (setting [5]).
In the case of `COc1ccc(COC(=O)O[C@@H]2CC[C@]3(CO3)[C@@H]([C@@]3(C)O[C@@H]3CC=C(C)C)[C@@H]2OC)cc1`, the IC50 in assay [1] (setting [4]) came out at 42 ng/mL (≈ 94.1 nM); in assay [3] (setting [5]) it was 18 ng/mL (≈ 40.3 nM).
As to `COc1ccc(/C=C/C(=O)O[C@@H]2CC[C@]3(CO3)[C@@H]([C@@]3(C)O[C@@H]3CC=C(C)C)[C@@H]2OC)cc1`, the results for the IC50 in assay [1] (el4), in assay [2] and in assay [3] (cpae) were 0.00019 ng/mL (≈ 0.000429 nM), greater than 1 ng/mL and 0.00006 ng/mL (≈ 0.000136 nM), respectively.
Turning to `C/C=C/C=C/C(=O)O[C@@H]1CC[C@]2(CO2)[C@@H]([C@@]2(C)O[C@@H]2CC=C(C)C)[C@@H]1OC`, the IC50 in assay [1] (setting [4]) is 5.05 ng/mL (≈ 13.4 nM); in assay [2], greater than 1 ng/mL; in assay [3] (setting [5]), 12 ng/mL (≈ 31.9 nM).
On the same counts, the results for `CO[C@@H]1[C@H](OC(=O)OCc2ccc([N+](=O)[O-])cc2)CC[C@]2(CO2)[C@H]1[C@@]1(C)O[C@@H]1CC=C(C)C` are 2.47 ng/mL (≈ 5.35 nM), greater than 1 ng/mL and 0.11 ng/mL (≈ 0.238 nM).
Regarding `CO[C@@H]1[C@H](OC(=S)SCc2ccccc2)CC[C@]2(CO2)[C@H]1[C@@]1(C)O[C@@H]1CC=C(C)C`, the IC50 in assay [1] (setting [4]) was determined as 14 ng/mL (≈ 31.2 nM); in assay [3] (setting [5]), 42 ng/mL (≈ 93.6 nM).
Take `COc1cc(/C=C/C(=O)O[C@@H]2CC[C@]3(CO3)[C@@H]([C@@]3(C)O[C@@H]3CC=C(C)C)[C@@H]2OC)cc(OC)c1OC`: the IC50 in assay [1] (el4) was 0.00015 ng/mL (≈ 0.000298 nM); in assay [2], greater than 1 ng/mL; in assay [3] (cpae) it was 0.00003 ng/mL (≈ 5.97e-05 nM).
Turning to `CO[C@@H]1[C@H](OC(=O)NCc2ccc(C(F)(F)F)cc2)CC[C@]2(CO2)[C@H]1[C@@]1(C)O[C@@H]1CC=C(C)C`, the figures for the IC50 in assay [1] (setting [4]), in assay [2] and in assay [3] (setting [5]) were 0.014 ng/mL (≈ 0.029 nM), greater than 1 ng/mL and 0.0054 ng/mL (≈ 0.0112 nM), respectively.
For the compound `COc1ccc(/C=C\C(=O)O[C@@H]2CC[C@]3(CO3)[C@@H]([C@@]3(C)O[C@@H]3CC=C(C)C)[C@@H]2OC)cc1`, the figures for the IC50 in assay [1] (setting [4]) and in assay [3] (setting [5]) were 12 ng/mL (≈ 27.1 nM) and 24 ng/mL (≈ 54.2 nM), respectively.
Take `COc1ccc(CCCC(=O)O[C@@H]2CC[C@]3(CO3)[C@@H]([C@@]3(C)O[C@@H]3CC=C(C)C)[C@@H]2OC)cc1`: the 50% inhibitory concentration (IC50) worked out at 83 ng/mL (≈ 181 nM) in assay [1] (setting [4]) and 125 ng/mL (≈ 273 nM) in assay [3] (setting [5]).

For the origin of these results see ChEMBL document CHEMBL1132853, “Design and synthesis of highly potent fumagillin analogues from homology modeling for a human MetAP-2” (Bioorg Med Chem Lett, 2000).
